Measurements published in patent US12616716B2, “Wound healing dressings and formulations and methods of use thereof” (Polaroid IP B.V., priority 2023, dated 2026).
≈ marks a conversion by molar mass, not a printed value.

How the values were obtained:
Klebsiella pneumoniae = assay: MIC, CLSI broth microdilution in CAMHB; format: cell-based
Method: (§1) The bacterial strains tested included CLSI and NCTC reference and quality control (QC) strains from the following organism groups: Acinetobacter baumannii, Enterococcus faecalis, Escherichia coli, Klebsiella pneumoniae, Pseudomonas aeruginosa, and Staphylococcus aureus. Some strains contained molecularly characterized β-lactamase genes including carbapenemase (KPC-2) and extended-spectrum β-lactamase (SHV-18) genes.
(§2) Isolates were tested for antimicrobial susceptibility using broth microdilution methodology according to CLSI M07 (2018) and M100 (2023) guidelines. Frozen-form, 96-well MIC panels were produced. The testing medium was cation-adjusted Mueller-Hinton broth (CAMHB). Single MIC values were measured for 8 test compounds against each of the 9 strains tested. Additional MIC values were generated for levofloxacin (comparator agent) against several of the QC strains.
(§3) Compound stock solutions were prepared and allowed to mix overnight as needed. The pH of each stock solution was checked and adjusted as necessary until a minimum pH of 5.0 was achieved (pH range 5.0-7.0). Some compound stock solutions also required the addition of heat to assist in solubilization.
(§4) Current CLSI quality assurance practices were followed when performing the broth microdilution susceptibility testing. MIC values were validated by concurrently testing a control agent (levofloxacin) against CLSI-recommended QC strains including S. aureus ATCC 29213 (methicillin susceptible), E. coli ATCC 25922, Enterococcus faecalis ATCC 29212, and P. aeruginosa ATCC 27853. The initial inoculum density (target, 5×10^5 CFU/mL) during susceptibility testing was monitored by bacterial colony counts.

Staphylococcus aureus = assay: MIC, CLSI broth microdilution in CAMHB; format: cell-based; conditions: ATCC29213, S. aureus (ATCC 29213)
Method: as §1, §2, §3, §4

Acinetobacter baumannii = assay: MIC, CLSI broth microdilution in CAMHB; format: cell-based; conditions: NCTC13304, A. baumannii (NCTC 13304)
Method: as §1, §2, §3, §4

Escherichia coli = assay: MIC, CLSI broth microdilution in CAMHB; format: cell-based
Method: as §1, §2, §3, §4

Pseudomonas aeruginosa = assay: MIC, CLSI broth microdilution in CAMHB; format: cell-based; conditions: ATCC27853, P. aeruginosa (ATCC 27853)
Method: as §1, §2, §3, §4

Enterococcus faecalis = assay: MIC, CLSI broth microdilution in CAMHB; format: cell-based
Method: as §1, §2, §3, §4

[1] = test system: Staphylococcus aureus MR1; assay: MIC, broth microdilution in MH broth with resazurin; format: cell-based; conditions: Staphylococcus aureus, MR1, read-out: MIC Concentration
[2] = test system: Enterococcus faecalis EF19433; assay: as above; format: cell-based; conditions: Enterococcus faecalis, EF19433, read-out: MIC Concentration
[3] = test system: Staphylococcus aureus NRS384; assay: as above; format: cell-based; conditions: Staphylococcus aureus, NRS384, read-out: MIC Concentration
[4] = test system: Staphylococcus aureus ATCC 29213; assay: as above; format: cell-based; conditions: Staphylococcus aureus, ATCC29213, read-out: MIC Concentration
[5] = test system: Staphylococcus aureus NRS384; assay: Murine wound infection model, in vivo antimicrobial efficacy (bacterial CFU/wound); conditions: Study 2 pilot; daily application; 24 hrs and 72 hrs post-seeding
Escherichia coli EC25922 [6] = assay: MIC, broth microdilution in MH broth with resazurin; format: cell-based; conditions: Escherichia coli, EC25922, read-out: MIC Concentration
[7] = test system: Klebsiella pneumoniae KL1; assay: as above; format: cell-based; conditions: Klebsiella pneumoniae, KL1, read-out: MIC Concentration
S. aureus NRS 384 = assay: Mouse Staphylococcus aureus-induced wound infection model, bacteria load in wound site; conditions: for Ig(CFU/wound site) 12 h p.i. / ΔIg(CFU/wound site) vs 12 h infection control / Ig(CFU/wound site) 24 h p.i. / ΔIg(CFU/wound site) vs 24 h infection control / Ig (CFU/wound site) / ΔIg(CFU/wound site) vs infection control: twice a day
[8] = test system: Pseudomonas aeruginosa 27853; assay: MIC, broth microdilution in MH broth with resazurin; format: cell-based; conditions: Pseudomonas aeruginosa, 27853, read-out: MIC Concentration
[9] = test system: Klebsiella pneumoniae KL1; assay: MBC, spot plating after 24 h in MH broth; conditions: F = Klebisella pneumoniae KL1
Method: (§5) To determine MBC compound concentrations breakpoints were estimated from MIC curves. Overnight cultures were set up as described above for all bacterial strains. The following day overnight cultures were adjusted to give a cell density of 5×10^5 cells per mL. Briefly, cultures were adjusted to the McFarland standard (0.08-0.12) and diluted (1:150). Adjusted cultures were inoculated into 96 well plates with 50 μL sterile Muller-Hinton broth (MHB) and 2 concentrations of each compound. […] MBC cultures were quantified by serial dilution in a 96 well plate and spot plating onto Muller-Hinton agar (MHA). MHA plates were incubated at 37° C. for 24 h and counted. Results are presented as CFU per mL.
(§6) To determine MBC compound concentrations, breakpoints were estimated from MIC curves. Overnight cultures were set up as described above for all bacterial strains. The following day overnight cultures were adjusted to give a cell density of 5×10^5 cells per mL. Briefly, cultures were adjusted to the McFarland standard (0.08-0.12) and diluted (1:150). Adjusted cultures were inoculated into 96 well plates with 50 μL sterile Muller-Hinton broth (MHB) and 2 concentrations of each compound. […] MBC cultures were quantified by serial dilution in a 96 well plate and spot plating onto Muller-Hinton agar (MHA). MHA plates were incubated at 37° C. for 24 hours and counted. […]

[10] = test system: Staphylococcus aureus ATCC 29213; assay: MBC, spot plating after 24 h in MH broth; conditions: A = Staphylococcus aureus 29213
Method: as §5
(§7) To determine MBC compound concentrations, breakpoints were estimated from MIC curves. Overnight cultures were set up as described above for all bacterial strains. The following day overnight cultures were adjusted to give a cell density of 5×10^5 cells per mL. Briefly, cultures were adjusted to the McFarland standard (0.08-0.12) and diluted (1:150). Adjusted cultures were inoculated into 96 well plates with 50 μL sterile Muller-Hinton broth (MHB) and 2 concentrations of each compound. […] MBC cultures were quantified by serial dilution in a 96 well plate and spot plating onto Muller-Hinton agar (MHA). MHA plates were incubated at 37° C. for 24 hours and counted.
(§8) These compounds were tested for their MBC against a panel of ATCC and nosocomial bacteria.

[11] = test system: Staphylococcus aureus NRS384; assay: MBC, spot plating after 24 h in MH broth; conditions: C = Staphylococcus aureus NRS384
Method: as §5, §6

[12] = test system: Staphylococcus aureus MR1; assay: MBC, spot plating after 24 h in MH broth; conditions: B = Staphylococcus aureus MR1
Method: as §5, §7, §8

Escherichia coli EC25922 [13] = assay: MBC, spot plating after 24 h in MH broth; conditions: H = Escherichia coli EC25922
Method: as §5, §7, §8

[14] = test system: Enterococcus faecalis EF51299; assay: MBC, spot plating after 24 h in MH broth; conditions: D = Enterococcus faecalis EF51299
Method: as §5, §6

[15] = test system: Enterococcus faecalis EF19433; assay: MBC, spot plating after 24 h in MH broth; conditions: E = Enterococcus faecalis EF19433
Method: as §5, §7, §8

[16] = test system: Pseudomonas aeruginosa 27853; assay: MBC, spot plating after 24 h in MH broth; conditions: G = Pseudomonas aeruginosa 27853
Method: as §5, §6

[17] = 1 mg/ml, 10 μL/wound site, 10 μg/wound site, 12 h p.i.
[18] = 1 mg/ml, 10 μL/wound site, 10 μg/wound site, 24 h p.i.
[19] = Study II, 1 mg/ml, 10 μL/wound site
[20] = Study III, 48 h p.i., 1 mg/ml, 10 μL/wound site
[21] = Study III, 72 h p.i., 1 mg/ml, 10 μL/wound site
[22] = Study V, 0.2 mg/ml, 50 μL/wound site, 24 h p.i.
[23] = Study V, 0.2 mg/ml, 50 μL/wound site, 72 h p.i.

## C[C@H]1COc2c(N3CCN(C)CC3)c(F)cc3c(=O)c(C(=O)O)cn1c23 [levofloxacin]
Klebsiella pneumoniae; ATCC700603, K. pneumoniae (ATCC 700603)
  MIC: 0.5 µg/mL (≈ 1.38 µM)
Klebsiella pneumoniae; BAA1705, K. pneumoniae (ATCC BAA 1705)
  MIC: > 8 µg/mL
Staphylococcus aureus
  MIC: 0.12 µg/mL (≈ 0.332 µM)
Acinetobacter baumannii
  MIC: 4 µg/mL (≈ 11.1 µM)
Escherichia coli; ATCC25922, E. coli (ATCC 25922)
  MIC: 0.015 µg/mL (≈ 0.0415 µM)
Escherichia coli; ATCCBAA2452, E. coli (ATCC BAA-2452)
  MIC: 0.03 µg/mL (≈ 0.083 µM)
Pseudomonas aeruginosa
  MIC: 1 µg/mL (≈ 2.77 µM)
Enterococcus faecalis; ATCC29212, E. faecalis (ATCC 29212)
  MIC: 1 µg/mL (≈ 2.77 µM)
Enterococcus faecalis; ATCC51299, E. faecalis (ATCC 51299)
  MIC: 0.5 µg/mL (≈ 1.38 µM)

## CN[C@H](CC(C)C)C(=O)N[C@H]1C(=O)N[C@@H](CC(N)=O)C(=O)N[C@H]2C(=O)N[C@H]3C(=O)N[C@H](C(=O)N[C@H](C(=O)O)c4cc(O)cc(O)c4-c4cc3ccc4O)[C@H](O)c3ccc(c(Cl)c3)Oc3cc2cc(c3O[C@@H]2O[C@H](CO)[C@@H](O)[C@H](O)[C@H]2O[C@H]2C[C@](C)(N)[C@H](O)[C@H](C)O2)Oc2ccc(cc2Cl)[C@H]1O [Vancomycin]
[1]
  MIC: 0.04 µM (≈ 0.058 µg/mL)
[2]
  MIC: 5 µM (≈ 7.25 µg/mL)
[3]
  MIC: 0.04 µM (≈ 0.058 µg/mL)
[4]
  MIC: 0.04 µM (≈ 0.058 µg/mL)
[5]
  log reduction in wound S. aureus: 1 log
Escherichia coli EC25922 [6]
  MIC: 0.63 µM (≈ 0.913 µg/mL)
[7]
  MIC: 0.63 µM (≈ 0.913 µg/mL)
S. aureus NRS 384; [17]
  Ig(CFU/wound site) 12 h p.i.: 8.02 ± 0.35 Ig(CFU/wound site)
  ΔIg(CFU/wound site) vs 12 h infection control: −0.57 ± 0.35 Ig(CFU/wound site)
S. aureus NRS 384; [18]
  Ig(CFU/wound site) 24 h p.i.: 7.29 ± 0.32 Ig(CFU/wound site)
  ΔIg(CFU/wound site) vs 24 h infection control: −1.44 ± 0.32 Ig(CFU/wound site)
S. aureus NRS 384; Study I, 10 μL/wound site
  Ig(CFU/wound site) 12 h p.i.: 8.47 ± 0.22 Ig(CFU/wound site)
  Ig(CFU/wound site) 24 h p.i.: 7.67 ± 0.60 Ig(CFU/wound site)
  ΔIg(CFU/wound site) vs 12 h infection control: −0.11 ± 0.22 Ig(CFU/wound site)
  ΔIg(CFU/wound site) vs 24 h infection control: −1.12 ± 0.60 Ig(CFU/wound site)
S. aureus NRS 384; Study I, after twice administrations
  bacterial load decreased by, compared with 24 h infection control group: 1.12 Ig CFU/wound site
S. aureus NRS 384; Study I, single dose at 10 μg
  effect of a single dose at 12-hour post infection: not manifest
S. aureus NRS 384; [19]
  Ig(CFU/wound site) 12 h p.i.: 7.83 ± 0.44 Ig(CFU/wound site)
  Ig(CFU/wound site) 24 h p.i.: 7.50 ± 0.54 Ig(CFU/wound site)
  ΔIg(CFU/wound site) vs 12 h infection control: −0.76 ± 0.44 Ig(CFU/wound site)
  ΔIg(CFU/wound site) vs 24 h infection control: −1.36 ± 0.54 Ig(CFU/wound site)
S. aureus NRS 384; Study III, 24 h p.i., 1 mg/ml, 10 μL/wound site, 10 μg/wound site, inoculum 2.50E+06 CFU/wound site
  Ig (CFU/wound site): 7.67 ± 0.24 Ig (CFU/wound site)
S. aureus NRS 384; Study III, 24 h p.i., 1 mg/ml, 10 μL/wound site
  ΔIg(CFU/wound site) vs infection control: −1.11 ± 0.24 Ig(CFU/wound site)
S. aureus NRS 384; Study III, 24 h p.i., 1 mg/ml, 50 μL/wound site, 50 μg/wound site
  Ig (CFU/wound site): 4.37 ± 0.26 Ig (CFU/wound site)
S. aureus NRS 384; Study III, 24 h p.i., 1 mg/ml, 50 μL/wound site
  ΔIg(CFU/wound site) vs infection control: −4.40 ± 0.26 Ig(CFU/wound site)
S. aureus NRS 384; [20]
  Ig (CFU/wound site): 5.29 ± 0.77 Ig (CFU/wound site)
  ΔIg(CFU/wound site) vs infection control: −3.28 ± 0.77 Ig(CFU/wound site)
S. aureus NRS 384; [21]
  Ig (CFU/wound site): 5.12 ± 0.65 Ig (CFU/wound site)
  ΔIg(CFU/wound site) vs infection control: −2.83 ± 0.65 Ig(CFU/wound site)
S. aureus NRS 384; [22]
  Ig (CFU/wound site): 6.07 ± 0.52 Ig(CFU/wound site)
  ΔIg(CFU/wound site) vs infection control: −2.39 ± 0.52 Ig(CFU/wound site)
S. aureus NRS 384; [23]
  Ig (CFU/wound site): 5.05 ± 0.20 Ig(CFU/wound site)
  ΔIg(CFU/wound site) vs infection control: −3.22 ± 0.20 Ig(CFU/wound site)
[8]
  MIC: 5 µM (≈ 7.25 µg/mL)

## CN[C@H](CC(C)C)C(=O)N[C@H]1C(=O)N[C@@H](CC(N)=O)C(=O)N[C@H]2C(=O)N[C@H]3C(=O)N[C@H](C(=O)N[C@H](C(=O)O)c4cc(O)cc(O)c4-c4cc3ccc4O)[C@H](O)c3ccc(c(Cl)c3)Oc3cc2cc(c3O[C@@H]2O[C@H](CO)[C@@H](O)[C@H](O)[C@H]2O[C@H]2C[C@](C)(N)[C@H](O)[C@H](C)O2)Oc2ccc(cc2Cl)[C@H]1O [Van]
[9]
  MBC Concentration: 1.25 µM (≈ 1.81 µg/mL)
[10]
  MBC Concentration: 0.02 µM (≈ 0.029 µg/mL)
[11]
  MBC Concentration: 0.02 µM (≈ 0.029 µg/mL)
[12]
  MBC Concentration: 0.02 µM (≈ 0.029 µg/mL)
Escherichia coli EC25922 [13]
  MBC Concentration: 0.31 µM (≈ 0.449 µg/mL)
[14]
  MBC Concentration: 0.04 µM (≈ 0.058 µg/mL)
[15]
  MBC Concentration: 0.08 µM (≈ 0.116 µg/mL)
[16]
  MBC Concentration: 2.50 µM (≈ 3.62 µg/mL)
